# From ChEMBL document CHEMBL4613209, “Quinolone hybrids and their anti-cancer activities: An overview” (Eur J Med Chem, 2019)
# Tests used:
# Assay type in all cases: functional, cell-based
# [1] = tested on: HL-60; assay: Antiproliferative activity against human HL60 cells after 24 to 72 hrs by MTT assay
# [2] = tested on: L1210; assay: Antiproliferative activity against mouse L1210 cells after 24 to 72 hrs by MTT assay
# [3] = tested on: SMMC-7721; assay: Antiproliferative activity against human SMMC7721 cells after 24 to 72 hrs by MTT assay
# [4] = tested on: Hep 3B2; assay: Antiproliferative activity against human Hep3B cells after 24 to 72 hrs by MTT assay
# [5] = tested on: Hep 3B2; assay: Cytotoxicity against human Hep3B cells assessed as reduction in cell viability by MTT assay
# [6] = tested on: SMMC-7721; assay: Cytotoxicity against human SMMC7721 cells assessed as reduction in cell viability by MTT assay
# [7] = tested on: L1210; assay: Cytotoxicity against mouse L1210 cells assessed as reduction in cell viability by MTT assay
# [8] = tested on: CAPAN-1; assay: Cytotoxicity against human Capan1 cells assessed as reduction in cell viability by MTT assay
# [9] = tested on: HL-60; assay: Cytotoxicity against human HL60 cells assessed as reduction in cell viability by MTT assay
IC50 [1],IC50 [2],IC50 [3],Compound,IC50 [4],IC50 [5],IC50 [6],IC50 [7],IC50 [8],IC50 [9]
1.4 to 52.3 µM,1.4 to 52.3 µM,1.4 to 52.3 µM,CCn1cc(-c2nnc(SCC(=O)N/N=C/c3ccc4c(c3)OCO4)o2)c(=O)c2cc(F)c(N3CCN(C)CC3)cc21,1.4 to 52.3 µM,,,,,
1.4 to 52.3 µM,1.4 to 52.3 µM,1.4 to 52.3 µM,CCn1cc(C(=O)N/N=C/c2ccccc2OC)c(=O)c2cc(F)c(N3CCNCC3)cc21,1.4 to 52.3 µM,,,,,
1.4 to 52.3 µM,1.4 to 52.3 µM,1.4 to 52.3 µM,CC1COc2c(N3CCN(C)CC3)c(F)cc3c(=O)c(-c4nnc(N/N=C/c5ccc([N+](=O)[O-])c6c5OCO6)[nH]4)cn1c23 (stereo not given),1.4 to 52.3 µM,,,,,
4.2 µM,1.6 µM,1.4 µM,CC1COc2c(N3CCN(C)CC3)c(F)cc3c(=O)c(-c4nnc(N/N=C/c5ccc(C(=O)O)cc5)[nH]4)cn1c23 (stereo not given),1.4 to 52.3 µM,,,,,
1.4 to 52.3 µM,1.4 to 52.3 µM,1.4 to 52.3 µM,CCn1cc(-c2nnc(SCC(=O)N/N=C/c3ccccc3OC)o2)c(=O)c2cc(F)c(N3CCN(C)CC3)cc21,1.4 to 52.3 µM,,,,,
1.4 to 52.3 µM,1.4 to 52.3 µM,1.4 to 52.3 µM,CCn1cc(-c2nnc(SCC(=O)N/N=C/c3ccc([N+](=O)[O-])cc3)o2)c(=O)c2cc(F)c(N3CCN(C)CC3)cc21,1.4 to 52.3 µM,,,,,
1.4 to 52.3 µM,1.4 to 52.3 µM,1.4 to 52.3 µM,CCn1cc(C(=O)N/N=C/c2ccc(OC)cc2)c(=O)c2cc(F)c(N3CCNCC3)cc21,1.4 to 52.3 µM,,,,,
1.4 to 52.3 µM,1.4 to 52.3 µM,1.4 to 52.3 µM,CCn1cc(C(=O)N/N=C/c2cc(OC)c(OC)c(OC)c2)c(=O)c2cc(F)c(N3CCNCC3)cc21,1.4 to 52.3 µM,,,,,
1.4 to 52.3 µM,1.4 to 52.3 µM,1.4 to 52.3 µM,CC1COc2c(N3CCN(C)CC3)c(F)cc3c(=O)c(-c4nnc(SCC(=O)N/N=C/c5ccccc5)[nH]4)cn1c23 (stereo not given),1.4 to 52.3 µM,,,,,
1.4 to 52.3 µM,1.4 to 52.3 µM,1.4 to 52.3 µM,CCn1cc(-c2nnc(SCC(=O)N/N=C/c3ccccc3)o2)c(=O)c2cc(F)c(N3CCN(C)CC3)cc21,1.4 to 52.3 µM,,,,,
1.4 to 52.3 µM,1.4 to 52.3 µM,1.4 to 52.3 µM,CCn1cc(-c2nnc(SCC(=O)N/N=C/c3ccccc3O)o2)c(=O)c2cc(F)c(N3CCN(C)CC3)cc21,1.4 to 52.3 µM,,,,,
1.4 to 52.3 µM,1.4 to 52.3 µM,1.4 to 52.3 µM,CCn1cc(-c2nnc(SCC(=O)N/N=C/c3ccc(Cl)cc3)o2)c(=O)c2cc(F)c(N3CCN(C)CC3)cc21,1.4 to 52.3 µM,,,,,
1.4 to 52.3 µM,1.4 to 52.3 µM,1.4 to 52.3 µM,CC1COc2c(N3CCN(C)CC3)c(F)cc3c(=O)c(-c4nnc(SCC(=O)N/N=C/c5ccc(C(=O)O)cc5)[nH]4)cn1c23 (stereo not given),1.4 to 52.3 µM,,,,,
1.4 to 52.3 µM,1.4 to 52.3 µM,1.4 to 52.3 µM,CC1COc2c(N3CCN(C)CC3)c(F)cc3c(=O)c(-c4nnc(N/N=C/c5ccc(F)cc5)[nH]4)cn1c23 (stereo not given),1.4 to 52.3 µM,,,,,
1.4 to 52.3 µM,1.4 to 52.3 µM,1.4 to 52.3 µM,CCn1cc(C(=O)N/N=C/c2ccc3c(c2)OCO3)c(=O)c2cc(F)c(N3CCNCC3)cc21,1.4 to 52.3 µM,,,,,
,,,CCn1cc(-c2nnc(SCc3nnc(-c4ccc(F)cc4)o3)[nH]2)c(=O)c2cc(F)c(N3CCN(C)CC3)cc21,,3.8 to 35.2 µM,3.8 to 35.2 µM,3.8 to 35.2 µM,3.8 to 35.2 µM,3.8 to 35.2 µM
,,,CCn1cc(-c2nc3scc(-c4ccc(C)cc4)n3n2)c(=O)c2cc(F)c(N3CCN(C)CC3)cc21,,3.6 to 56.8 µM,3.6 to 56.8 µM,3.6 to 56.8 µM,3.6 to 56.8 µM,3.6 to 56.8 µM
,,,COc1ccc(-c2csc3nc(-c4cn5c6c(c(N7CCN(C)CC7)c(F)cc6c4=O)OCC5C)nn23)cc1 (stereo not given),,26.7 to 35.7 µM,26.7 to 35.7 µM,26.7 to 35.7 µM,26.7 to 35.7 µM,26.7 to 35.7 µM
,,,CCn1cc(-c2nnc(SCc3nnc(-c4cccc(C)c4)o3)[nH]2)c(=O)c2cc(F)c(N3CCN(C)CC3)cc21,,3.8 to 35.2 µM,3.8 to 35.2 µM,3.8 to 35.2 µM,3.8 to 35.2 µM,3.8 to 35.2 µM
,,,CCn1cc(-c2nnc(SCc3nnc(-c4ccccc4OC)o3)[nH]2)c(=O)c2cc(F)c(N3CCN(C)CC3)cc21,,3.8 to 35.2 µM,3.8 to 35.2 µM,3.8 to 35.2 µM,3.8 to 35.2 µM,3.8 to 35.2 µM
,,,CN1CCN(c2cc3c(cc2F)c(=O)c(-c2nc4scc(-c5ccc(Cl)cc5)n4n2)cn3C2CC2)CC1,,3.6 to 56.8 µM,3.6 to 56.8 µM,3.6 to 56.8 µM,3.6 to 56.8 µM,3.6 to 56.8 µM
,,,CN1CCN(c2cc3c(cc2F)c(=O)c(-c2nc4scc(-c5ccccc5)n4n2)cn3C2CC2)CC1,,3.6 to 56.8 µM,3.6 to 56.8 µM,3.6 to 56.8 µM,3.6 to 56.8 µM,3.6 to 56.8 µM

IC50 [1],IC50 [2],IC50 [3],Compound,IC50 [4],IC50 [5],IC50 [6],IC50 [7],IC50 [8],IC50 [9]
,,,CCn1cc(-c2nc3scc(-c4ccc(OC)cc4)n3n2)c(=O)c2cc(F)c(N3CCN(C)CC3)cc21,,3.6 to 56.8 µM,3.6 to 56.8 µM,3.6 to 56.8 µM,3.6 to 56.8 µM,3.6 to 56.8 µM
,,,CCn1cc(-c2nnc(SCc3nnc(-c4ccc([N+](=O)[O-])cc4)o3)[nH]2)c(=O)c2cc(F)c(N3CCN(C)CC3)cc21,,3.8 to 35.2 µM,3.8 to 35.2 µM,3.8 to 35.2 µM,3.8 to 35.2 µM,3.8 to 35.2 µM
,,,CCn1cc(-c2nc3scc(-c4ccc(Cl)cc4)n3n2)c(=O)c2cc(F)c(N3CCN(C)CC3)cc21,,3.6 to 56.8 µM,3.6 to 56.8 µM,3.6 to 56.8 µM,3.6 to 56.8 µM,3.6 to 56.8 µM
,,,CCn1cc(-c2nc(SCc3nnc(-c4ccc(OC)c(OC)c4)o3)n(CN(C)C)n2)c(=O)c2cc(F)c(N3CCN(C)CC3)cc21,,1.5 to 24.5 µM,1.5 to 24.5 µM,1.5 to 24.5 µM,1.5 to 24.5 µM,1.5 to 24.5 µM
,,,COc1cc(-c2csc3nc(-c4cn5c6c(c(N7CCN(C)CC7)c(F)cc6c4=O)OCC5C)nn23)ccc1O (stereo not given),,3.6 to 56.8 µM,3.6 to 56.8 µM,3.6 to 56.8 µM,3.6 to 56.8 µM,3.6 to 56.8 µM
,,,CC1COc2c(N3CCN(C)CC3)c(F)cc3c(=O)c(-c4nc5scc(-c6ccccc6O)n5n4)cn1c23 (stereo not given),,3.6 to 56.8 µM,3.6 to 56.8 µM,3.6 to 56.8 µM,3.6 to 56.8 µM,3.6 to 56.8 µM
,,,CCn1cc(-c2nc3scc(-c4ccc(F)cc4)n3n2)c(=O)c2cc(F)c(N3CCN(C)CC3)cc21,,3.6 to 56.8 µM,3.6 to 56.8 µM,3.6 to 56.8 µM,3.6 to 56.8 µM,3.6 to 56.8 µM
,,,CCn1cc(-c2nc3scc(-c4ccc(O)cc4)n3n2)c(=O)c2cc(F)c(N3CCN(C)CC3)cc21,,3.6 to 56.8 µM,3.6 to 56.8 µM,3.6 to 56.8 µM,3.6 to 56.8 µM,3.6 to 56.8 µM
,,,CCn1cc(-c2nc(SCc3nnc(-c4cc(OC)c(OC)c(OC)c4)o3)n(CN(C)C)n2)c(=O)c2cc(F)c(N3CCN(C)CC3)cc21,,1.5 to 24.5 µM,1.5 to 24.5 µM,1.5 to 24.5 µM,1.5 to 24.5 µM,1.5 to 24.5 µM
,,,COc1ccccc1-c1csc2nc(-c3cn4c5c(c(N6CCN(C)CC6)c(F)cc5c3=O)OCC4C)nn12 (stereo not given),,3.6 to 56.8 µM,3.6 to 56.8 µM,3.6 to 56.8 µM,3.6 to 56.8 µM,3.6 to 56.8 µM
,,,CC1COc2c(N3CCN(C)CC3)c(F)cc3c(=O)c(-c4nc5scc(-c6ccc7c(c6)OCO7)n5n4)cn1c23 (stereo not given),,3.6 to 56.8 µM,3.6 to 56.8 µM,3.6 to 56.8 µM,3.6 to 56.8 µM,3.6 to 56.8 µM
,,,CC1COc2c(N3CCN(C)CC3)c(F)cc3c(=O)c(-c4nc5scc(-c6ccccc6)n5n4)cn1c23 (stereo not given),,3.6 to 56.8 µM,3.6 to 56.8 µM,3.6 to 56.8 µM,3.6 to 56.8 µM,3.6 to 56.8 µM
,,,CCn1cc(-c2nc(SCc3nnc(-c4ccc(C)cc4)o3)n(CN(C)C)n2)c(=O)c2cc(F)c(N3CCN(C)CC3)cc21,,1.5 to 24.5 µM,1.5 to 24.5 µM,1.5 to 24.5 µM,1.5 to 24.5 µM,1.5 to 24.5 µM
,,,CCn1cc(-c2nnc(SCc3nnc(-c4ccc(C)cc4)o3)[nH]2)c(=O)c2cc(F)c(N3CCN(C)CC3)cc21,,3.8 to 35.2 µM,3.8 to 35.2 µM,3.8 to 35.2 µM,3.8 to 35.2 µM,3.8 to 35.2 µM
,,,CN1CCN(c2cc3c(cc2F)c(=O)c(-c2nc4scc(-c5ccc(Br)cc5)n4n2)cn3C2CC2)CC1,,3.6 to 56.8 µM,3.6 to 56.8 µM,3.6 to 56.8 µM,3.6 to 56.8 µM,3.6 to 56.8 µM
,,,COc1ccc(-c2csc3nc(-c4cn5c6c(c(N7CCN(C)CC7)c(F)cc6c4=O)OCC5C)nn23)cc1OC (stereo not given),,35.7 to 53.6 µM,35.7 to 53.6 µM,35.7 to 53.6 µM,35.7 to 53.6 µM,35.7 to 53.6 µM
,,,CCn1cc(-c2nnc(SCc3nnc(-c4ccc(Cl)cc4)o3)[nH]2)c(=O)c2cc(F)c(N3CCN(C)CC3)cc21,,3.8 to 35.2 µM,3.8 to 35.2 µM,3.8 to 35.2 µM,3.8 to 35.2 µM,3.8 to 35.2 µM
,,,Cc1ccc(-c2csc3nc(-c4cn5c6c(c(N7CCN(C)CC7)c(F)cc6c4=O)OCC5C)nn23)cc1 (stereo not given),,3.6 to 56.8 µM,3.6 to 56.8 µM,3.6 to 56.8 µM,3.6 to 56.8 µM,3.6 to 56.8 µM
,,,CN1CCN(c2cc3c(cc2F)c(=O)c(-c2nc4scc(-c5ccc(F)cc5)n4n2)cn3C2CC2)CC1,,3.6 to 56.8 µM,3.6 to 56.8 µM,3.6 to 56.8 µM,3.6 to 56.8 µM,3.6 to 56.8 µM
,,,CCn1cc(-c2nnc(SCc3nnc(-c4ccccc4)o3)[nH]2)c(=O)c2cc(F)c(N3CCN(C)CC3)cc21,,3.8 to 35.2 µM,3.8 to 35.2 µM,3.8 to 35.2 µM,3.8 to 35.2 µM,3.8 to 35.2 µM
,,,CCn1cc(-c2nc(SCc3nnc(-c4cccc(C)c4)o3)n(CN(C)C)n2)c(=O)c2cc(F)c(N3CCN(C)CC3)cc21,,1.5 to 24.5 µM,1.5 to 24.5 µM,1.5 to 24.5 µM,1.5 to 24.5 µM,1.5 to 24.5 µM
,,,CCn1cc(-c2nc3scc(-c4ccc(OC)c(O)c4)n3n2)c(=O)c2cc(F)c(N3CCN(C)CC3)cc21,,3.6 to 56.8 µM,3.6 to 56.8 µM,3.6 to 56.8 µM,3.6 to 56.8 µM,3.6 to 56.8 µM
